Assay [1] deals with methicillin resistant Staphylococcus aureus (MRSA) biofilm. The following applies: approximate peptide concentration […] (around 3 μg/ml); compared to untreated samples. The method, boiled down:
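Static biofilm assay: 1/100 dilutions of overnight cultures grown in BM2 medium (pH 7, glucose, Casamino Acids) or Luria Broth with peptide added at time zero. After 22–46 h, adherent biofilm was stained with crystal violet and read at 595 nm. Some peptides were also tested on K. pneumoniae under flow in a Bioflux system.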

Assay [2] has as its system human peripheral blood mononuclear cells (MCP-1). As to the kind of experiment: SPOT-synthesized derivative screen: production of chemokine MCP-1. The following applies: Table 12, No LPS, human PBMC, peptide at ~18-24 μM; for MCP1: background subtracted 139 (HH2 derivatives), 170 (1018 derivatives), 242 (1002 and hybrid peptides) pg/ml. It counts as cell-based. The gist of the method:
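PBMC from heparinized healthy-donor venous blood, Ficoll-separated, cultured at 0.75 to 1×10^6 cells/ml, 37 °C, 5% CO2, under the treatment regimens. MCP-1 in cell-free supernatants measured by capture ELISA.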

In assay [3] the test system is LPS-stimulated human peripheral blood mononuclear cells (IL1-β). It counts as cell-based. The note with it: Table 12, cells stimulated with 10 ng/ml LPS; for IL1β Production: LPS alone 1313 (HH2 derivatives), 1927 (1018 derivatives), 2455 (1002 and hybrid peptides) pg/ml.

Ends that are not written are not given here.

Consider 25 substances from patent publication US20190315823A1, “SMALL CATIONIC ANTI-BIOFILM AND IDR PEPTIDES” (priority 2013, published 2019).

Regarding “HH2-G7: single substituted HH2 peptide (VQLRIRGAVIRA-NH2)”, the “% Biofilm inhibition” value in assay [1] worked out at 33%. Moreover, in assay [2], the “Fold increase in MCP1 cf. untreated cells” value (from here on “Fold increase”) stood at 1.5 and the “MCP1” value came out at 78 pg/mL. Also, in assay [3], the “Fold change in IL1β relative to no peptide LPS stimulated cells” value stood at 1.02 and the “IL1β Production” value stood at 1344 pg/mL.

Regarding “HH2-W5: single substituted HH2 peptide (VQLRWRVAVIRA-NH2)”, the “% Biofilm inhibition” value in assay [1] stood at 63%. Further, in assay [2], the “Fold increase” value was 14 and the “MCP1” value is 2198 pg/mL. In assay [3], the “Fold change in IL1β relative to no peptide LPS stimulated cells” value came to 0.77 and the “IL1β Production” value was 1007 pg/mL.

For the substance “1018-R5: single substituted 1018 peptide (VRLIRAVRIWRR-NH2) [Peptide 1018-R5]”, the “% Biofilm inhibition” value in assay [1] came to 4%. Also, in assay [2], the “Fold increase” value is on record as 0.8 and the “MCP1” value was -41 pg/mL. For the same substance, in assay [3], the “Fold change in IL1β relative to no peptide LPS stimulated cells” value is on record as 1.50 and the “IL1β Production” value was determined as 1973 pg/mL.

On to “1018-A7: single substituted 1018 peptide (VRLIVAARIWRR-NH2) [Peptide 1018-A7]”, for which the “% Biofilm inhibition” value in assay [1] came out at 52%. In assay [2], the “Fold increase” value was determined as 0.5 and the “MCP1” value is -88 pg/mL. Moreover, in assay [3], the “Fold change in IL1β relative to no peptide LPS stimulated cells” value is reported as 0.68 and the “IL1β Production” value is 891 pg/mL.

With “1002-K11: single substituted 1002 peptide (VQRWLIVWRIKK-NH2) [Peptide 1002-K11]”, the “% Biofilm inhibition” value in assay [1] was 74%. In assay [2], the “Fold increase” value is given as 3.2 and the “MCP1” value came out at 543.3 pg/mL. Besides, in assay [3], the “Fold change in IL1β relative to no peptide LPS stimulated cells” value turned out to be 0.05 and the “IL1β Production” value is 127 pg/mL.

Consider “HH2-G12: single substituted HH2 peptide (VQLRIRVAVIRG-NH2)”, for which the “% Biofilm inhibition” value in assay [1] is given as 69%. Further, in assay [2], the “Fold increase” value came out at 68 and the “MCP1” value stood at 11442 pg/mL. For the same substance, in assay [3], the “Fold change in IL1β relative to no peptide LPS stimulated cells” value amounted to 1.09 and the “IL1β Production” value turned out to be 1433 pg/mL.

Take “1018-L12: single substituted 1018 peptide (VRLIVAVRIWRL-NH2) [Peptide 1018-L12]”: the “% Biofilm inhibition” value in assay [1] amounted to 44%. In assay [2], the “Fold increase” value was 1.2 and the “MCP1” value came to 29 pg/mL. For the same substance, in assay [3], the “Fold change in IL1β relative to no peptide LPS stimulated cells” value was found to be 0.17 and the “IL1β Production” value turned out to be 220 pg/mL.

Take “1018-I3: single substituted 1018 peptide (VRIIVAVRIWRR-NH2) [Peptide 1018-I3]”: the “% Biofilm inhibition” value in assay [1] was found to be 68%. Besides, in assay [2], the “Fold increase” value was 0.7 and the “MCP1” value was -50 pg/mL. For the same substance, in assay [3], the “Fold change in IL1β relative to no peptide LPS stimulated cells” value was 0.12 and the “IL1β Production” value is 156 pg/mL.

For the substance “HH2-L12: single substituted HH2 peptide (VQLRIRVAVIRL-NH2)”, in assay [1], the “% Biofilm inhibition” value was determined as 51%. In assay [2], the “Fold increase” value was found to be 24 and the “MCP1” value came to 3916 pg/mL. For the same substance, in assay [3], the “Fold change in IL1β relative to no peptide LPS stimulated cells” value turned out to be 0.23 and the “IL1β Production” value is 301 pg/mL.

“HH2-R8: single substituted HH2 peptide (VQLRIRVRVIRA-NH2)”: in assay [1], the “% Biofilm inhibition” value stood at 71%. For the same substance, in assay [2], the “Fold increase” value amounted to 121 and the “MCP1” value worked out at 1890 pg/mL. For the same substance, in assay [3], the “Fold change in IL1β relative to no peptide LPS stimulated cells” value came to 0.79 and the “IL1β Production” value was 1042 pg/mL.

On to “1002-G10: single substituted 1002 peptide (VQRWLIVWRGRK-NH2) [Peptide 1002-G10]”, for which, in assay [1], the “% Biofilm inhibition” value is 35%. Besides, in assay [2], the “Fold increase” value is on record as 1.4 and the “MCP1” value is 91.3 pg/mL. Further, in assay [3], the “Fold change in IL1β relative to no peptide LPS stimulated cells” value came out at 0.09 and the “IL1β Production” value amounted to 222 pg/mL.

As for “1018-G1: single substituted 1018 peptide (GRLIVAVRIWRR-NH2) [Peptide 1018-G1]”, the “% Biofilm inhibition” value in assay [1] amounted to 38%. In assay [2], the “Fold increase” value is 216 and the “MCP1” value turned out to be 36611 pg/mL. In addition, in assay [3], the “Fold change in IL1β relative to no peptide LPS stimulated cells” value is listed as 0.10 and the “IL1β Production” value was 127 pg/mL.

As for “1002-W6: single substituted 1002 peptide (VQRWLWVWRIRK-NH2) [Peptide 1002-W6]”, the “% Biofilm inhibition” value in assay [1] worked out at 53%. In addition, in assay [2], the “Fold increase” value is 0.9 and the “MCP1” value was -36.2 pg/mL. Also, in assay [3], the “Fold change in IL1β relative to no peptide LPS stimulated cells” value is listed as 0.05 and the “IL1β Production” value is 127 pg/mL.

For “1002-G7: single substituted 1002 peptide (VQRWLIGWRIRK-NH2) [Peptide 1002-G7]”, the “% Biofilm inhibition” value in assay [1] is 54%. In assay [2], the “Fold increase” value was 0.9 and the “MCP1” value is -36.2 pg/mL. Also, in assay [3], the “Fold change in IL1β relative to no peptide LPS stimulated cells” value was found to be 0.14 and the “IL1β Production” value stood at 353 pg/mL.

Consider “1002-L12: single substituted 1002 peptide (VQRWLIVWRIRL-NH2) [Peptide 1002-L12]”, for which the “% Biofilm inhibition” value in assay [1] was determined as 64%. In assay [2], the “Fold increase” value is on record as 4.7 and the “MCP1” value came to 905.7 pg/mL. Further, in assay [3], the “Fold change in IL1β relative to no peptide LPS stimulated cells” value was determined as 0.05 and the “IL1β Production” value amounted to 127 pg/mL.

For the substance “1018-I5: single substituted 1018 peptide (VRLIIAVRIWRR-NH2) [Peptide 1018-I5]”, the “% Biofilm inhibition” value in assay [1] worked out at 60%. In assay [2], the “Fold increase” value is 13 and the “MCP1” value worked out at 2103 pg/mL. Moreover, in assay [3], the “Fold change in IL1β relative to no peptide LPS stimulated cells” value amounted to 0.10 and the “IL1β Production” value came out at 127 pg/mL.

As to “1018-G9: single substituted 1018 peptide (VRLIVAVRGWRR-NH2) [Peptide 1018-G9]”, the “% Biofilm inhibition” value in assay [1] is reported as 67%. In assay [2], the “Fold increase” value is 0.9 and the “MCP1” value was -17 pg/mL. In addition, in assay [3], the “Fold change in IL1β relative to no peptide LPS stimulated cells” value is reported as 1.13 and the “IL1β Production” value was 1481 pg/mL.

For the substance “1002-G4: single substituted 1002 peptide (VQRGLIVWRIRK-NH2) [Peptide 1002-G4]”, the “% Biofilm inhibition” value in assay [1] is recorded as 42%. Also, in assay [2], the “Fold increase” value worked out at 1.1 and the “MCP1” value amounted to 33.0 pg/mL. In assay [3], the “Fold change in IL1β relative to no peptide LPS stimulated cells” value is on record as 0.29 and the “IL1β Production” value is 723 pg/mL.

“HH2-V10: single substituted HH2 peptide (VQLRIRVAVVRA-NH2)”: the “% Biofilm inhibition” value in assay [1] worked out at 68%. In assay [2], the “Fold increase” value is given as 36 and the “MCP1” value was 5929 pg/mL. Besides, in assay [3], the “Fold change in IL1β relative to no peptide LPS stimulated cells” value is 1.06 and the “IL1β Production” value was found to be 1390 pg/mL.

With “HH2-W7: single substituted HH2 peptide (VQLRIRWAVIRA-NH2)”, the “% Biofilm inhibition” value in assay [1] worked out at 70%. In assay [2], the “Fold increase” value is recorded as 9.2 and the “MCP1” value amounted to 1395 pg/mL. Moreover, in assay [3], the “Fold change in IL1β relative to no peptide LPS stimulated cells” value was determined as 0.88 and the “IL1β Production” value was determined as 1154 pg/mL.

In the case of “HH2-W3: single substituted HH2 peptide (VQWRIRVAVIRA-NH2)”, the “% Biofilm inhibition” value in assay [1] is 62%. In assay [2], the “Fold increase” value is reported as 21 and the “MCP1” value stood at 3418 pg/mL. Besides, in assay [3], the “Fold change in IL1β relative to no peptide LPS stimulated cells” value was 0.67 and the “IL1β Production” value stood at 874 pg/mL.

Turning to “1018-W6: single substituted 1018 peptide (VRLIVWVRIWRR-NH2) [Peptide 1018-W6]”, the “% Biofilm inhibition” value in assay [1] is listed as 75%. Moreover, in assay [2], the “Fold increase” value is 0.7 and the “MCP1” value was -54 pg/mL. Besides, in assay [3], the “Fold change in IL1β relative to no peptide LPS stimulated cells” value stood at 0.24 and the “IL1β Production” value stood at 310 pg/mL.

With “HH2-A6: single substituted HH2 peptide (VQLRIAVAVIRA-NH2)”, the “% Biofilm inhibition” value in assay [1] is recorded as 41%. In assay [2], the “Fold increase” value was 1.8 and the “MCP1” value was 137 pg/mL. In addition, in assay [3], the “Fold change in IL1β relative to no peptide LPS stimulated cells” value is 1.06 and the “IL1β Production” value was found to be 1391 pg/mL.

Take “1018-W11: single substituted 1018 peptide (VRLIVAVRIWWR-NH2) [Peptide 1018-W11]”: the “% Biofilm inhibition” value in assay [1] was determined as 53%. For the same substance, in assay [2], the “Fold increase” value is on record as 0.8 and the “MCP1” value is -28 pg/mL. In addition, in assay [3], the “Fold change in IL1β relative to no peptide LPS stimulated cells” value worked out at 0.62 and the “IL1β Production” value came to 814 pg/mL.

For the substance “1002-W1: single substituted 1002 peptide (WQRWLIVWRIRK-NH2) [Peptide 1002-W1]”, in assay [1], the “% Biofilm inhibition” value is given as 76%. In addition, in assay [2], the “Fold increase” value stood at 3.6 and the “MCP1” value was found to be 622.0 pg/mL. For the same substance, in assay [3], the “Fold change in IL1β relative to no peptide LPS stimulated cells” value worked out at 0.05 and the “IL1β Production” value was 127 pg/mL.
